The results in this text go back to ChEMBL document CHEMBL1135763, “Discovery of aminothiazole inhibitors of cyclin-dependent kinase 2: synthesis, X-ray crystallographic analysis, and biological activities” (J Med Chem, 2002).

The target of series [1] is Cyclin-dependent kinase 4/cyclin D1 (Homo sapiens, UniProt P11802). The series can be described thus: Inhibitory activity against baculovirus expressed Cyclin dependent kinase 4-cyclinD1. It counts as protein-complex assay.
In series [2] the test system is A2780. The series can be described thus: cells. The conditions noted are these: Homo sapiens.
Description: Cytotoxic activity against A2780 human ovarian carcinoma cell line
Series [3] addresses Cyclin-dependent kinase 2/cyclin E (Homo sapiens, UniProt P24941). The series can be described thus: Inhibitory activity against baculovirus expressed Cyclin dependent kinase 2-cyclinE. It counts as protein-complex assay.
Series [4] addresses Cyclin-dependent kinase 1/cyclin B (Homo sapiens, UniProt P06493). Briefly: Inhibitory activity against baculovirus expressed Cyclin dependent kinase 1-cyclinB. It counts as protein-complex assay.
Series [5] in a line: Cmax value at a dose of 10 mg/kg peroral administration in mice. It counts as ADME, organism-based. Also on record: dose 10 mg/kg, route oral. The conditions noted are these: mouse, in vivo, po.
Series [6] is described as follows: Plasma clearance at a dose of 10 mg/kg intravenous administration in mice. Also on record: dose 10 mg/kg, route intravenous. The conditions noted are these: mouse. It counts as ADME, organism-based.
The nature of series [7]: Half life at a dose of 10 mg/kg peroral administration in mice. It counts as ADME, organism-based. Also on record: dose 10 mg/kg, route oral. The conditions noted are these: mouse, in vivo, po.
For series [8], the species on record is Homo sapiens. The series can be described thus: Metabolic rate in human. It counts as ADME.
The test system of series [9] is Mus musculus. Briefly: At a dose 50 mg/kg (114 umol/kg) was administered intraperitoneally to mice and was evaluated for MRT. It counts as functional, organism-based. On the set-up: dose 50 mg/kg.
The nature of series [10]: MRT value at a dose of 10 mg/kg intravenous administration in mice. Also on record: dose 10 mg/kg, route intravenous. The conditions noted are these: mouse, in vivo. It counts as ADME, organism-based.
The nature of series [11]: At a dose 50 mg/kg (114 umol/kg) was administered intraperitoneally to mice and was evaluated for Cmax. It counts as ADME, organism-based. On the set-up: dose 50 mg/kg, route intraperitoneal. The conditions noted are these: mouse, in vivo, ip.
The nature of series [12]: Inhibition of I kappa-B kinase.
The nature of series [13]: Inhibition of Insulin-like growth factor receptor.
The target in series [14] is Protein kinase C epsilon type (Homo sapiens, UniProt Q02156). Briefly: Inhibition of Protein kinase C epsilon.
The target in series [15] is T1, Tyrosine-protein kinase ITK/TSK (Homo sapiens, UniProt Q08881).
T1 sequence (Q08881 whole entry): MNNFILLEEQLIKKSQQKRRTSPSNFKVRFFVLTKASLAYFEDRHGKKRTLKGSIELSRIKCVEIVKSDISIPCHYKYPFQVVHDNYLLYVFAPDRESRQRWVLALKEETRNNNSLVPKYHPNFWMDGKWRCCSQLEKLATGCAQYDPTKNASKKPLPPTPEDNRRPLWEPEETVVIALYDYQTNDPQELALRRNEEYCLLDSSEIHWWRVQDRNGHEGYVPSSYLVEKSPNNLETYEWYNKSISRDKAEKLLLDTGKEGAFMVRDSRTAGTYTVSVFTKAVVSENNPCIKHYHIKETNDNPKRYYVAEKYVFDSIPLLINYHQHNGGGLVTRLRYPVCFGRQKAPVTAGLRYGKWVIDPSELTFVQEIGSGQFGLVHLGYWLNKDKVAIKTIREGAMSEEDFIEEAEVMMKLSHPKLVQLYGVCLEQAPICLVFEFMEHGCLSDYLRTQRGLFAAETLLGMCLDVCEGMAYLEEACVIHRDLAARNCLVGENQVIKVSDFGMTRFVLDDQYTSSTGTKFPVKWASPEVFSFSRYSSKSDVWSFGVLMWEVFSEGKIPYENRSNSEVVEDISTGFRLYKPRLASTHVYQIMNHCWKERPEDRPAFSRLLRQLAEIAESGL
The series can be described thus: Inhibition of tyrosine kinase EMT.

For series [16], the system named is A2780. The series can be described thus: […] antitumor activity against A2780 human ovarian carcinoma at 7.5 mg/kg i.p. /qd x7. It counts as functional. The conditions noted are these: route intraperitoneal.
Series [17] is described as follows: Tmax value at a dose of 10 mg/kg peroral administration in mice. It counts as ADME, organism-based. The conditions noted are these: mouse, in vivo, po. Also on record: dose 10 mg/kg, route oral.
Series [18] relates to Mus musculus. The series can be described thus: AUC total value at a dose of 10 mg/kg intravenous administration in mice. It counts as ADME, organism-based, Plasma. On the set-up: dose 10 mg/kg, route intravenous. The conditions noted are these: in vivo.
Series [19] can be described thus: Cmax value at a dose of 10 mg/kg intravenous administration in mice. It counts as ADME, organism-based. On the set-up: dose 10 mg/kg, route intravenous. The conditions noted are these: mouse, in vivo.
Series [20] has as its target Tyrosine-protein kinase ZAP-70 (Homo sapiens, UniProt P43403). The series can be described thus: Inhibition of Zeta-chain (TCR) associated protein kinase 70 kDa (ZAP70).
Series [21] deals with Protein kinase C delta type (Homo sapiens, UniProt Q05655). The series can be described thus: Inhibition of Protein kinase C delta.
Series [22] in a line: Vss value at a dose of 10 mg/kg intravenous administration in mice. It counts as ADME, organism-based. Also on record: dose 10 mg/kg, route intravenous. The conditions noted are these: mouse, in vivo, read-out: Vss.
Series [23] is filed under the species Mus musculus. Briefly: Metabolic rate in mouse. It counts as ADME.
Series [24] in a line: Bioavailability at a dose of 10 mg/kg peroral administration in mice. It counts as ADME, organism-based. The conditions noted are these: mouse, in vivo, po, read-out: Bioavailabiility.
A short description of series [25]: At a dose 50 mg/kg (114 umol/kg) was administered intraperitoneally to mice and was evaluated for T max. It counts as ADME, organism-based. On the set-up: dose 50 mg/kg, route intraperitoneal. The conditions noted are these: mouse, in vivo, ip.
Series [26] is filed under the species Mus musculus. The series can be described thus: Percent of serum binding in mouse. It counts as functional.
Series [27] addresses Protein kinase C alpha type (Homo sapiens, UniProt P17252). Briefly: Inhibition of Protein kinase C alpha.
A short description of series [28]: MRT value at a dose of 10 mg/kg peroral administration in mice. It counts as ADME, organism-based. Also on record: dose 10 mg/kg, route oral. The conditions noted are these: mouse, in vivo, po.
Series [29] addresses Protein kinase C beta type (Homo sapiens, UniProt P05771). The series can be described thus: Inhibition of Protein kinase C beta.
Series [30] concerns Mus musculus. Briefly: At a dose 50 mg/kg (114 umol/kg) was administered intraperitoneally to mice and was evaluated for area under curve (AUCtot). It counts as ADME, organism-based. On the set-up: time AUCmax, dose 50 mg/kg, route intraperitoneal. The conditions noted are these: in vivo, ip.
The species entered for series [31] is Homo sapiens. The series can be described thus: Percent of serum binding in human. It counts as functional.
Series [32] relates to Mus musculus. Briefly: AUC total value at a dose of 10 mg/kg peroral administration in mice. It counts as ADME, organism-based, Plasma. The conditions noted are these: in vivo, po. Also on record: dose 10 mg/kg, route oral.
Series [33] can be described thus: At a dose 50 mg/kg (114 umol/kg) was administered intraperitoneally to mice and was evaluated for half life (T1/2). It counts as ADME, organism-based. The conditions noted are these: mouse, in vivo, ip. On the set-up: dose 50 mg/kg, route intraperitoneal.
Series [34] addresses Receptor tyrosine-protein kinase erbB-2 (Homo sapiens, UniProt P04626). Briefly: Inhibition of HER2 kinase.
Series [35] is described as follows: Tmax value at a dose of 10 mg/kg intravenous administration in mice. It counts as ADME, organism-based. On the set-up: dose 10 mg/kg, route intravenous. The conditions noted are these: mouse, in vivo.
In series [36] the target is Protein kinase C zeta (Homo sapiens) (UniProt Q05513). Briefly: Inhibition of Protein kinase C zeta.
The subject of series [37] is P388. Briefly: […] antitumor activity against P388 murine leukemia at 7.5 mg/kg i.p. /qd x7 and %T/C. It counts as functional, Mus musculus. The conditions noted are these: route intraperitoneal.
Series [38] can be described thus: Half life at a dose of 10 mg/kg intravenous administration in mice. It counts as ADME, organism-based. Also on record: dose 10 mg/kg, route intravenous. The conditions noted are these: mouse, in vivo.

Sequence of Cyclin-dependent kinase 4/cyclin D1 (P11802 whole entry): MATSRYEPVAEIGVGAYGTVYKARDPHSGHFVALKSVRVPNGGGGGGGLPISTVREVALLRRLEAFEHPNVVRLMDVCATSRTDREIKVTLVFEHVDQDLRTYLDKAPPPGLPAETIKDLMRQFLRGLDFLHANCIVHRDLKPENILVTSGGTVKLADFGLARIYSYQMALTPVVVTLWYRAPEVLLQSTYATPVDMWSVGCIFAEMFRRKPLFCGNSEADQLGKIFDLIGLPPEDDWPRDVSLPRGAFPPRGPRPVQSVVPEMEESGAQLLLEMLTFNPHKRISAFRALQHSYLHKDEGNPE
Sequence of Cyclin-dependent kinase 4/cyclin D1 (P24385 whole entry, further chain): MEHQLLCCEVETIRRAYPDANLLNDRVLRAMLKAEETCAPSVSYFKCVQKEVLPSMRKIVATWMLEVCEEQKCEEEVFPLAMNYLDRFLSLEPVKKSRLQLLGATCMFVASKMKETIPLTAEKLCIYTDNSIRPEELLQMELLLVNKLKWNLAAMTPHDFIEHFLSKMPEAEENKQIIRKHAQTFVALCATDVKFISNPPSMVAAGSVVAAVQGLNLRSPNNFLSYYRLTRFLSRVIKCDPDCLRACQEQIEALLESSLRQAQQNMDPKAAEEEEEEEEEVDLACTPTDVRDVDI
Sequence of Tyrosine-protein kinase ZAP-70 (P43403 whole entry): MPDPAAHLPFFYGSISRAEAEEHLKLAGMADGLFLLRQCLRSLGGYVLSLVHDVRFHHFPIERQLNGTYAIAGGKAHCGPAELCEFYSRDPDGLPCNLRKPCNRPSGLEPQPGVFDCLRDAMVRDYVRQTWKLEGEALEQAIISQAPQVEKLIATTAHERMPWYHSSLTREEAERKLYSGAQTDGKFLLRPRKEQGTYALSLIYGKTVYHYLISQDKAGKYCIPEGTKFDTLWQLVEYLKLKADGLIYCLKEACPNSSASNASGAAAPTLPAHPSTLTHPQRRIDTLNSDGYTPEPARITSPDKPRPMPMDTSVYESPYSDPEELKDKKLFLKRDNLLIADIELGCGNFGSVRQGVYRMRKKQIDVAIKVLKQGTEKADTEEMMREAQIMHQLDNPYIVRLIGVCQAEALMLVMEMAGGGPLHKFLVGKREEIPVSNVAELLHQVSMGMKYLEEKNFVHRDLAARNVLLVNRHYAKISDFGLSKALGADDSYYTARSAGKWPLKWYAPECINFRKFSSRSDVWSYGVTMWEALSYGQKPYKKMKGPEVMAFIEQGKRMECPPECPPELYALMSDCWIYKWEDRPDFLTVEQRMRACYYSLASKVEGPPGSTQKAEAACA
Sequence of Protein kinase C epsilon type (Q02156 whole entry): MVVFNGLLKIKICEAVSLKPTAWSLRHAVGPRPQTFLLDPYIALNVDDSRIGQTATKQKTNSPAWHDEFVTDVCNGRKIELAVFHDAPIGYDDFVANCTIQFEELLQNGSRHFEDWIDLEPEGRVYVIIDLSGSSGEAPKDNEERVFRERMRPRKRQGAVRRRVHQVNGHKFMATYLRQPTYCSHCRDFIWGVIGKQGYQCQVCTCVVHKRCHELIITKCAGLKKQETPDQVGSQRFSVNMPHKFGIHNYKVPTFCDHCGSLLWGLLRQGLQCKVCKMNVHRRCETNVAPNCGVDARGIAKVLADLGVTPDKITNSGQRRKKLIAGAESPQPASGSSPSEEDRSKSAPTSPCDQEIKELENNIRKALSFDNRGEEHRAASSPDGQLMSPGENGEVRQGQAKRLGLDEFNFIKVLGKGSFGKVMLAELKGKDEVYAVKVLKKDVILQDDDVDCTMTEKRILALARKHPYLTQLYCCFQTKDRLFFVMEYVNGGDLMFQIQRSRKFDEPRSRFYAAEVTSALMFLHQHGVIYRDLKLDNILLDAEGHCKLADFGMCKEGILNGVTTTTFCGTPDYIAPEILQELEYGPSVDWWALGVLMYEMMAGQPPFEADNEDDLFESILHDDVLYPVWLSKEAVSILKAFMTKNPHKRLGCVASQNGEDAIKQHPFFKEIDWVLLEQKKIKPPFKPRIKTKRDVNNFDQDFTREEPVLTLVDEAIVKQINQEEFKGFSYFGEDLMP
Sequence of Protein kinase C zeta (Homo sapiens) (Q05513 whole entry, looked up): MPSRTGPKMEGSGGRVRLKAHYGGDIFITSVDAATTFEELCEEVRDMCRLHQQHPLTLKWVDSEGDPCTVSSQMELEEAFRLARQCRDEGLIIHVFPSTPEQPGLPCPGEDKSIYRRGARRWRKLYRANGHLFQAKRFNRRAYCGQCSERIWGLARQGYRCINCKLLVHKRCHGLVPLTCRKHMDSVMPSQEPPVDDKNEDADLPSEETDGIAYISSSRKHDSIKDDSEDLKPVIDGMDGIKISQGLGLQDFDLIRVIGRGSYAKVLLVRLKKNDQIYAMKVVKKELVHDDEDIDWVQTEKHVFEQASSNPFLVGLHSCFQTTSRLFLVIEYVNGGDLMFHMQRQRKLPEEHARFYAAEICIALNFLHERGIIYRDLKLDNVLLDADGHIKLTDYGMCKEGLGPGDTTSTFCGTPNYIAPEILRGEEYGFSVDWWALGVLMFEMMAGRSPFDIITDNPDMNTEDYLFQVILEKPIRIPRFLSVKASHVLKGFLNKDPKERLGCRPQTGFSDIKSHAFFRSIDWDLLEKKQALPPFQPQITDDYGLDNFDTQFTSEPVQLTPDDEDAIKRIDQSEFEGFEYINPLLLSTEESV
Sequence of Protein kinase C beta type (P05771 whole entry): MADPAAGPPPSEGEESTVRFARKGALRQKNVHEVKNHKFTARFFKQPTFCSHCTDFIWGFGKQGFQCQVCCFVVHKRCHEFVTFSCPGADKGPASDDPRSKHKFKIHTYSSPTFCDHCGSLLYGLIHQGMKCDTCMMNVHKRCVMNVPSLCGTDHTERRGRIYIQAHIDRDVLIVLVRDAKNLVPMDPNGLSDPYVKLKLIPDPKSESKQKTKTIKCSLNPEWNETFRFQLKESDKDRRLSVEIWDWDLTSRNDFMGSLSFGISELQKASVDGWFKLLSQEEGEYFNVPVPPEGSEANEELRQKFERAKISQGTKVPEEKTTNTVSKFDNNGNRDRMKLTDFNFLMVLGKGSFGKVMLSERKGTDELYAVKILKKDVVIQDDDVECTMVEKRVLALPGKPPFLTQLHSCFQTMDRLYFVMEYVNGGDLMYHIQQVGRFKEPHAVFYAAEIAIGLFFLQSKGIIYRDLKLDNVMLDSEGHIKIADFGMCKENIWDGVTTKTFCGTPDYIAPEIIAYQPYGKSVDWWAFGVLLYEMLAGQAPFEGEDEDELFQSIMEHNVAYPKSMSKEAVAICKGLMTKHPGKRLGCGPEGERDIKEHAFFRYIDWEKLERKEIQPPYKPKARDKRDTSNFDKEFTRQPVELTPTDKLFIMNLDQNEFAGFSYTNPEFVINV
Sequence of Receptor tyrosine-protein kinase erbB-2 (P04626 whole entry): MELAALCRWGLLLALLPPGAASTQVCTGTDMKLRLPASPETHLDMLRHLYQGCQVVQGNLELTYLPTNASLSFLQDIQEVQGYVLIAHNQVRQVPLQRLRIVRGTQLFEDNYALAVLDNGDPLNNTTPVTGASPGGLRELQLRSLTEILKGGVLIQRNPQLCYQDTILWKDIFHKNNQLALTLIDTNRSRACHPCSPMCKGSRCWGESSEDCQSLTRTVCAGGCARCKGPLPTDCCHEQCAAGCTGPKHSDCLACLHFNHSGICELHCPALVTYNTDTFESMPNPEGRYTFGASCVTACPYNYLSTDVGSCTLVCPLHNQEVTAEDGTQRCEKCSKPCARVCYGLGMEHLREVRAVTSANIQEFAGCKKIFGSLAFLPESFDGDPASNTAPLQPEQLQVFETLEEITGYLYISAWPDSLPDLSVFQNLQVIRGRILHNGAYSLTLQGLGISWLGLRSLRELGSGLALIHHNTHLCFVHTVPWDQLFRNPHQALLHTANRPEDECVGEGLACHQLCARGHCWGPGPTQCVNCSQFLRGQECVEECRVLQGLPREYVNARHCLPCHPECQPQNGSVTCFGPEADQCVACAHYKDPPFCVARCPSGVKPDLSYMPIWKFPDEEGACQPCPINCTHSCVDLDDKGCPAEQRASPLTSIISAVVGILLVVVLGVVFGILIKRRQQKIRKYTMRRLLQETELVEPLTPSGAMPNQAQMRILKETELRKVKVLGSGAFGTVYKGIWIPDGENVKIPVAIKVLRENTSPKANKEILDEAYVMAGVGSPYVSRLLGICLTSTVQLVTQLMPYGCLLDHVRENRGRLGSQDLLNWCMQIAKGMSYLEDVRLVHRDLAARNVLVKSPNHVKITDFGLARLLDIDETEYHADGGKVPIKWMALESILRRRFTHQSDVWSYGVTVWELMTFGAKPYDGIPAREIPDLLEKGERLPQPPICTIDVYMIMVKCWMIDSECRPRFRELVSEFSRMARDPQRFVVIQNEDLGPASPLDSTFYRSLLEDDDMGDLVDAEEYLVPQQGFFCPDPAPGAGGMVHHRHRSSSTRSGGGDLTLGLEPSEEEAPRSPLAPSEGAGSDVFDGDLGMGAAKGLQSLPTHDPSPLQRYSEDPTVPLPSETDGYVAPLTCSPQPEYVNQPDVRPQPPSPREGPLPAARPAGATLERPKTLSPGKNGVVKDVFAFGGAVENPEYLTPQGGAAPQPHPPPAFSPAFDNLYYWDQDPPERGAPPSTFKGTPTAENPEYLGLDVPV

For the compound `CC(C)OC(=O)Nc1ncc(SCc2ncc(C(C)(C)C)o2)s1`, the IC50 (commonly the concentration needed to halve the response being measured) worked out at 2.99 µM in series [1], 0.64 µM in series [2], 0.025 µM in series [3] and 0.018 µM in [4].
The corresponding values for `CC(C)(C)C(=O)Nc1ncc(SCc2ncc(C(C)(C)C)o2)s1` are 3.48 µM, 0.25 µM, 0.017 µM and 0.09 µM.
With `CC(C)(C)c1cnc(CSc2cnc(NC(=O)Cc3ccc(CNC(CO)CO)cc3)s2)o1`, the Cmax (usually the highest concentration seen after dosing) in [5] is 0.635 µM; in series [11] it was 0.8 µM; in [19], 8.27 µM. In series [6], the clearance (in general, a measure of how efficiently the substance is removed, as volume per time) was found to be 4.02 L/h/kg. The half-life (commonly the time needed for the level to fall by half in the phase considered) is 1.4 h in series [7], 1.8 h in series [33] and 2.2 h in series [38]. For the same compound, the Rate in [8] is reported as 0.21 nM min-1 (mg of protein)-1; in series [23], 0.22 nM min-1 (mg of protein)-1. Besides, the values for the MRT in series [9], in series [10] and in [28] were 2.9 h, 1.8 h and 4.1 h, respectively. For the same compound, the 50% inhibitory concentration (IC50) in series [12] is 28 µM; in series [13] it was 24 µM; in series [14] it was 5.6 µM; in series [15], 29 µM; in [1] it was 0.1 µM; in series [20], greater than 50 µM. Also, the IC50 was 45 µM in [21]; greater than 45 µM in series [27]; greater than 45 µM in series [29]; greater than 25 µM in series [34]; 35 µM in series [36]. This compound displayed an LCK in series [16] of 3.3. Also, the results for the Tmax in [17], in series [25] and in [35] were 0.33 h, 1 h and 4.8 min, respectively. Moreover, the results for the AUC total in series [18], in series [30] and in series [32] were 4980 nM·h, 2700 nM·h and 1200 nM·h, respectively. Moreover, the Vd in series [22] came out at 6.9 L/kg. Besides, the bioavailability in series [24] amounted to 24%. Also, the Activity in [26] is on record as 79%; in series [31] it was 78%. Besides, the T/C (as a rule, the result in the treated group divided by that in the control group, in per cent) in series [37] is 140%.
With `CC(=O)Nc1ncc(SCc2ncc(CC3CCCCC3)o2)s1`, the 50% inhibitory concentration (IC50) in [1] stood at 0.64 µM; in series [2], 1.54 µM; in [3], 0.004 µM; in series [4], 0.03 µM.
Turning to `C[C@@H](C(=O)Nc1ncc(SCc2ncc(C(C)(C)C)o2)s1)c1ccccc1`, the figures for the 50% inhibitory concentration (IC50) in series [1], in [2] and in series [3] were 3.13 µM, 0.9 µM and 0.006 µM, respectively.
`CC(=O)Nc1ncc(SCc2ncc(C(C)C)o2)s1`: the 50% inhibitory concentration (IC50) in [1] came to 1.07 µM; in series [2] it was 0.2 µM; in series [3] it was 0.006 µM; in [4], 0.06 µM.
